The NIST ThermoML archive (doi:10.1021/je900733j)

Key:
[1] = xn = mol fraction of the nth substance listed; settings: 101 kPa, Liquid
[2] = 101 kPa, Liquid

CC#N [acetonitrile] + CCCCn1cc[n+](C)c1.[Cl-]
[1], x2 = 0
Settings	mass density [kg/m3]
293.15 K	782.04
298.15 K	776.64
303.15 K	771.21
308.15 K	765.75
313.15 K	760.25
318.15 K	754.73

CCCCn1cc[n+](C)c1.[Cl-] [1-butyl-3-methylimidazolium chloride] + O
mass density [kg/m3], [1]
Settings	x1 = 0.0121	x1 = 0.0381	x1 = 0.0819	x1 = 0.1109	x1 = 0.1399	x1 = 0.2489	x1 = 0.2977	x1 = 0.4083
293.15 K	1007.06	1024.73	1046.21	1055.73	1062.54	1076.98	1080.14	1084.32
298.15 K	1005.53	1022.46	1043.25	1052.62	1059.39	1073.95	1077.15	1081.43
303.15 K	1003.8	1020.07	1040.24	1049.46	1056.2	1070.89	1074.16	1078.53
308.15 K	1001.89	1017.57	1037.17	1046.28	1052.99	1067.82	1071.15	1075.63
313.15 K	999.81	1014.95	1034.06	1043.06	1049.76	1064.72	1068.14	1072.73
318.15 K	997.57	1012.24	1030.89	1039.81	1046.48	1061.63	1065.09	1069.82

CN(C)C=O [dimethylformamide] + CCCCn1cc[n+](C)c1.[Cl-]
[1], x2 = 0
Settings	mass density [kg/m3]
293.15 K	948.63
298.15 K	943.86
303.15 K	939.08
308.15 K	934.29
313.15 K	929.48
318.15 K	924.68

CC#N [acetonitrile]
[2]
Settings	mass density [kg/m3]
293.15 K	782.04
298.15 K	776.64
303.15 K	771.21
308.15 K	765.75
313.15 K	760.25
318.15 K	754.73

CO [methanol] + CCCCn1cc[n+](C)c1.[Cl-]
[1], x2 = 0
Settings	mass density [kg/m3]
293.15 K	791.3
298.15 K	786.58
303.15 K	781.86
308.15 K	777.11
313.15 K	772.33
318.15 K	767.52

CN(C)C=O [dimethylformamide]
[2]
Settings	mass density [kg/m3]
293.15 K	948.63
298.15 K	943.86
303.15 K	939.08
308.15 K	934.29
313.15 K	929.48
318.15 K	924.68

CCCCn1cc[n+](C)c1.[Cl-] [1-butyl-3-methylimidazolium chloride] + CO
mass density [kg/m3], [1]
Settings	x1 = 0.0101	x1 = 0.0506	x1 = 0.1	x1 = 0.1665	x1 = 0.1951	x1 = 0.2398	x1 = 0.2991	x1 = 0.3771	x1 = 0.482
293.15 K	805.87	852.64	894.1	935.48	949.82	968.61	989.02	1010.45	1031.45
298.15 K	801.3	848.46	890.18	931.83	946.25	965.16	985.68	1007.23	1028.33
303.15 K	796.71	844.24	886.26	928.17	942.69	961.71	982.33	1004.01	1025.22
308.15 K	792.11	840.01	882.35	924.53	939.14	958.26	979.01	1000.8	1022.12
313.15 K	787.49	835.76	878.44	920.9	935.6	954.83	975.69	997.6	1019.03
318.15 K	782.83	831.56	874.52	917.27	932.06	951.4	972.38	994.41	1015.96

CCCCn1cc[n+](C)c1.[Cl-] [1-butyl-3-methylimidazolium chloride] + CN(C)C=O
mass density [kg/m3], [1]
Settings	x1 = 0.0332	x1 = 0.0835	x1 = 0.1303	x1 = 0.1822	x1 = 0.2289	x1 = 0.3069	x1 = 0.3879	x1 = 0.4488
293.15 K	961.92	978	990.54	1002.71	1012.04	1025.51	1037.1	1044.53
298.15 K	957.33	973.63	986.33	998.67	1008.12	1021.78	1033.54	1041.06
303.15 K	952.73	969.25	982.13	994.62	1004.21	1018.05	1029.98	1037.61
308.15 K	948.12	964.87	977.91	990.58	1000.3	1014.34	1026.42	1034.18
313.15 K	943.52	960.48	973.71	986.54	996.4	1010.63	1022.89	1030.77
318.15 K	938.89	956.09	969.5	982.51	992.5	1006.94	1019.36	1027.36

CCCCn1cc[n+](C)c1.[Cl-] [1-butyl-3-methylimidazolium chloride] + CC#N
mass density [kg/m3], [1]
Settings	x1 = 0.0303	x1 = 0.0797	x1 = 0.1308	x1 = 0.1806	x1 = 0.235	x1 = 0.2914	x1 = 0.3717	x1 = 0.439
293.15 K	815.47	859.07	894.46	922.76	948.31	970.09	995.09	1012.49
298.15 K	810.4	854.38	890.07	918.62	944.36	966.32	991.52	1009.08
303.15 K	805.29	849.67	885.68	914.46	940.39	962.55	987.95	1005.66
308.15 K	800.18	844.95	881.27	910.3	936.47	958.78	984.38	1002.25
313.15 K	795.05	840.21	876.86	906.14	932.51	955.02	980.83	998.86
318.15 K	789.88	835.48	872.45	901.98	928.57	951.26	977.28	995.46

CO [methanol]
[2]
Settings	mass density [kg/m3]
293.15 K	791.3
298.15 K	786.58
303.15 K	781.86
308.15 K	777.11
313.15 K	772.33
318.15 K	767.52
